Measurements as given in patent publication US20150328245A1, “Agents for Eliminating Tumour-Initiating Cells” (priority 2012, published 2015).
“And” between values parts separate entries of the source, which are not always exact repeats. Identical values can stand only once.

Columns and labels:
Format in all cases: cell-based
[1] = system: MCF10A (normal breast cell line); assay: In vitro colorimetric cell death assay (MTT); conditions: 48 hours, read-out: IC 50
Description: (§1) It's an in vitro colorimetric assay for assessing cell viability where the cells are grown in Two-dimensional surface.
(§2) An exemplary procedure for the assay follows. Cancer cells and normal cells were plated in a 96 well plate as per predetermined plating efficiency. The plate was incubated for 24 hours in a 5% CO2 atmosphere at 37 degrees Celsius, a range of concentrations of the compounds I-1, I-2 and I-3 as well as cisplatin (known chemotherapeutic agents) were added to the separate wells, the plate was incubated further for 48 hours in a 5% CO2 atmosphere, the plate was centrifuged twice at 3000 rpm for 3 minutes, the supernatant fluid was discarded, 100 uL of 0.5 mg/mL MTT solution was added and the plate was incubated for 4 hours in a 5% CO2 atmosphere at 37 degrees Celsius. The plate was then centrifuged twice at 3000 rpm for 3 minutes, supernatant, was aspirated very carefully, 200 uL DMSO was added to each well to solubilize MTT crystals and mixed well by shaking the plate, the plate was incubated for 10 minutes in a 5% CO2 atmosphere at 37 degrees Celsius, the plate placed on the shaker of an ELISA plate reader and the absorbance at 570 nm was measured, then the percentage of viable cells remaining was calculated by first subtracting the background absorbance then comparing to the absorbance of a non-drug-treated cell sample, and the results were plotted on a graph to determine the IC50 for the compounds and cisplatin.

[2] = system: DU145; assay: In vitro colorimetric cell death assay (MTT); conditions: DU145, MTT, 48 hours, read-out: IC 50
Description: as §1, §2

[3] = system: L 929; assay: In vitro colorimetric cell death assay (MTT); conditions: L 929, MTT, 48 hours; read-out: IC 50
Description: as §1, §2

[4] = system: LNCaP; assay: In vitro colorimetric cell death assay (MTT); conditions: 48 hours
Description: as §1, §2

[5] = system: MCF-7; assay: In vitro colorimetric cell death assay (MTT); conditions: MCF-7, MTT, 48 hours
Description: as §1, §2

[6] = system: MDAMB231; assay: In vitro colorimetric cell death assay (MTT)
Description: as §1, §2

[7] = system: T47D; assay: In vitro colorimetric cell death assay (MTT); conditions: 48 hours
Description: as §1, §2

[8] = system: PC3; assay: In vitro colorimetric cell death assay (MTT)
Description: as §1, §2

[9] = system: prostate cancer cells LNCaP; assay: In vitro 3D primary sphere forming stem cell assay
Description: (§3) This assay measures the ability of cancer stem cells to form spheres in a serum free media where the spheres are in a suspended form. Through this assay we evaluated the potency of the compounds of the invention to kill cancer stem cells in comparison with the known chemotherapeutic agent Cisplatin.
(§4) An exemplary procedure for the assay follows. Cells were grown in three dimensions on a plastic substrate, harvested in suspension in serum-free media, then the cells in the sample were trypsinized and a single cell suspension was formed by passing through a cell strainer. The cells were diluted according to the predetermined plating efficiency for the cell line being studied by suspending the cells in stem cell culture medium. 100 uL of this suspension was added into each well of a 96 well suspension plate, and the plate was incubated at 37 degrees Celsius in 5% CO2 atmosphere for 24 hours, then 2 uL of appropriate concentrations of the compounds of the invention and cisplatin were added into each respective well along with 100 uL of stem cell culture medium, and the plates were incubated at 37 degrees Celsius under 5% CO2 atmosphere for 72 hours. 2.5 uL of the compounds of the invention and cisplatin were added to each respective well along with 50 uL of stem cell culture medium and then the plates were incubated at 37 degrees Celsius under 5% CO2 atmosphere for 72 hours. 3 uL of appropriate concentrations of the compounds of the invention and cisplatin were added to each respective well along with 50 uL of stem cell culture medium and then the plates were incubated at 37 degrees Celsius under 5% CO2 atmosphere for 72 hours, then the spheres formed were observed under a microscope then counted and scored by size.
(§5) Results of the in vitro 3D sphere forming stem cell assay are set forth in a tabular manner. The number in each box is the total number of spheres formed in the presence of either cisplatin or compound I-2 or compound I-3 at each drug concentration. GC refers to a growth control performed in the absence of drug or solvent (DMSO). GCD refers to a growth control performed in the absence of drug, but in the presence of DMSO.

[10] = system: breast cancer cells MDA MB 231; assay: In vitro 3D primary sphere forming stem cell assay
Description: as §3, §4, §5

[11] = system: prostate cancer cells PC3; assay: In vitro 3D primary sphere forming stem cell assay
Description: as §3, §4, §5

[12] = system: prostate cancer cells DU145; assay: In vitro 3D primary sphere forming stem cell assay
Description: as §3, §4, §5

[13] = system: breast cancer cells MCF-7; assay: In vitro 3D primary sphere forming stem cell assay
Description: as §3, §4, §5

[14] = system: breast cancer cells T47D; assay: In vitro 3D primary sphere forming stem cell assay
Description: as §3, §4, §5

[15] = system: DU145; assay: In vitro soft agar colony forming growth assay; conditions: one week
Description: (§6) The Soft Agar Assay for Colony Formation is considered the most stringent assay for detecting malignant transformation of cells. In this assay the cells are cultured in medium with low percentage of agar.
(§7) An exemplary procedure for the assay follows.

[16] = system: HeLa; assay: In vitro soft agar colony forming growth assay; conditions: soft agar, one week, read-out: IC 50
Description: as §6, §7

[17] = system: LNCaP; assay: In vitro soft agar colony forming growth assay; conditions: one week
Description: as §6, §7

[18] = system: MCF-7; assay: In vitro soft agar colony forming growth assay; conditions: MCF-7, soft agar, one week
Description: as §6, §7

[19] = system: L929; assay: In vitro soft agar colony forming growth assay; conditions: L929, soft agar, one week; read-out: IC 50
Description: as §6, §7

[20] = system: T47D; assay: In vitro soft agar colony forming growth assay; conditions: one week
Description: as §6, §7

[21] = system: PC3; assay: In vitro soft agar colony forming growth assay; conditions: one week
Description: as §6, §7

[22] = system: MDAMB231; assay: In vitro soft agar colony forming growth assay; conditions: Homo sapiens, MDA-MB-231, 168 h; MDAMB231, soft agar, one week; read-out: IC 50
Description: as §6, §7

[23] = system: cancer cell lines; assay: In vitro colorimetric cell death assay (MTT), overall statement
Description: as §1, §2

N.N.[Cl][Pt][Cl] [Cisplatin, cisplatin, reference compound]
IC50 [1]: 36.3 µM | IC50 [2]: 56.2 µM | IC50 [3]: 46.7 µM | IC50 [4]: 64.6 µM | IC50 [5]: 4.75 µM | IC50 ([6]; 48 hours): 82.3 µM | IC50 [7]: 51.3 µM | IC50 ([8]; 48 hours): 40.1 µM | # of 3D Primary Spheres Formed of Cells LNCaP (±SD) ([9]; final conc. 0.125 μM): 142(±12) | # of 3D Primary Spheres Formed of Cells LNCaP (±SD) ([9]; final conc. 1.25 μM): 144(±8) | # of 3D Primary Spheres Formed of Cells LNCaP (±SD) ([9]; final conc. 12.5 μM): 108(±10) | # of 3D Primary Spheres Formed of Cells LNCaP (±SD) ([9]; final conc. 125 μM): 54(±7) | # of 3D Primary Spheres Formed of Cells LNCaP (±SD) ([9]; final conc. 1250 μM): 9(±2) | # of 3D Primary Spheres Formed of Cells MDA MB231 (±SD) ([10]; final conc. 0.125 μM): 124(±7) and 87(±5) | # of 3D Primary Spheres Formed of Cells MDA MB231 (±SD) ([10]; final conc. 1.25 μM): 113(±11) and 79(±2) | # of 3D Primary Spheres Formed of Cells MDA MB231 (±SD) ([10]; final conc. 12.5 μM): 112(±18) and 78(±5) | # of 3D Primary Spheres Formed of Cells PC3 (±SD) ([11]; final conc. 0.125 μM): 125(±7) | # of 3D Primary Spheres Formed of Cells PC3 (±SD) ([11]; final conc. 1.25 μM): 109(±12) | # of 3D Primary Spheres Formed of Cells PC3 (±SD) ([11]; final conc. 12.5 μM): 80(±6) | # of 3D Primary Spheres Formed of Cells PC3 (±SD) ([11]; final conc. 125 μM): 67(±5) | # of 3D Primary Spheres Formed of Cells PC3 (±SD) ([11]; final conc. 1250 μM): 55(±5) | # of 3D Primary Spheres Formed of Cells DU145 (±SD) ([12]; final conc. 0.125 μM): 84(±4) | # of 3D Primary Spheres Formed of Cells DU145 (±SD) ([12]; final conc. 1.25 μM): 70(±7) | # of 3D Primary Spheres Formed of Cells DU145 (±SD) ([12]; final conc. 12.5 μM): 48(±6) | # of 3D Primary Spheres Formed of Cells DU145 (±SD) ([12]; final conc. 125 μM): 35(±4) | # of 3D Primary Spheres Formed of Cells DU145 (±SD) ([12]; final conc. 1250 μM): 11(±3) | # of 3D Primary Spheres Formed of Cells MCF-7 (±SD) ([13]; final conc. 0.125 μM): 76(±5) | # of 3D Primary Spheres Formed of Cells MCF-7 (±SD) ([13]; final conc. 1.25 μM): 77(±5) | # of 3D Primary Spheres Formed of Cells MCF-7 (±SD) ([13]; final conc. 12.5 μM): 68(±7) | # of 3D Primary Spheres Formed of Cells MCF-7 (±SD) ([13]; final conc. 125 μM): 61(±7) | # of 3D Primary Spheres Formed of Cells MCF-7 (±SD) ([13]; final conc. 1250 μM): 37(±8) | # of 3D Primary Spheres Formed of Cells T47D (±SD) ([14]; final conc. 0.125 μM): 105(±10) | # of 3D Primary Spheres Formed of Cells T47D (±SD) ([14]; final conc. 1.25 μM): 100(±7) | # of 3D Primary Spheres Formed of Cells T47D (±SD) ([14]; final conc. 12.5 μM): 76(±25) | # of 3D Primary Spheres Formed of Cells T47D (±SD) ([14]; final conc. 125 μM): 51(±5) | # of 3D Primary Spheres Formed of Cells T47D (±SD) ([14]; final conc. 1250 μM): 0(±0) | IC50 [15]: 56.2 µM | IC50 [16]: 39.4 µM | IC50 [17]: 64.6 µM | IC50 [18]: 37.1 µM | IC50 [19]: 8.7 µM | IC50 [20]: 51.3 µM | IC50 [21]: 40.1 µM

COc1cc2c(OC3OCC(O)C(O)C3O)c3c(c(-c4ccc5c(c4)OCO5)c2cc1OC)C(=O)OC3 (centres unmarked) [I-3, 9-(1,3-benzodioxol-5-yl)-4-[(3,4,5-trihydroxytetrahydro-2H-pyran-2-yl)oxy]naphtho-6,7-dimethoxynaphtho[2,3-c]furan-1(3H)-one]
IC50 ([2]; Homo sapiens, DU-145): 9.55 µM | IC50 ([4]; Homo sapiens): 3.16 µM | IC50 ([6]; Homo sapiens, MDA-MB-231, 48 hours): 10 µM | IC50 ([7]; Homo sapiens): 21.1 µM | IC50 ([8]; Homo sapiens, PC-3, 48 hours): 13.5 µM | numbers of primary spheres formed, compared with cisplatin ([10]; MDA MB 231): significantly less | # of 3D Primary Spheres Formed of Cells MDA MB231 (±SD) ([10]; final conc. 0.125 μM): 54(±5) | # of 3D Primary Spheres Formed of Cells MDA MB231 (±SD) ([10]; final conc. 1.25 μM): 38(±5) | # of 3D Primary Spheres Formed of Cells MDA MB231 (±SD) ([10]; final conc. 12.5 μM): 31(±5) | # of 3D Primary Spheres Formed of Cells MDA MB231 (±SD) ([10]; final conc. 125 μM): 9(±2) | # of 3D Primary Spheres Formed of Cells MDA MB231 (±SD) ([10]; final conc. 1250 μM): 0(±0) | numbers of primary spheres formed, compared with cisplatin ([13]; MCF-7): significantly less | # of 3D Primary Spheres Formed of Cells MCF-7 (±SD) ([13]; final conc. 0.125 μM): 74(±10) | # of 3D Primary Spheres Formed of Cells MCF-7 (±SD) ([13]; final conc. 1.25 μM): 57(±5) | # of 3D Primary Spheres Formed of Cells MCF-7 (±SD) ([13]; final conc. 12.5 μM): 48(±10) | # of 3D Primary Spheres Formed of Cells MCF-7 (±SD) ([13]; final conc. 125 μM): 28(±6) | # of 3D Primary Spheres Formed of Cells MCF-7 (±SD) ([13]; final conc. 1250 μM): 0(±0) | IC50 ([15]; Homo sapiens, DU-145, 168 h): 0.661 µM | IC50 [22]: 0.55 µM | IC50 ([20]; Homo sapiens, 168 h): 0.7 µM | IC50 ([21]; Homo sapiens, PC-3, 168 h): 0.85 µM | anticancer activity in cancer cell lines as compared to cisplatin [23]: high anticancer activity
